Entries after “also recorded” stand apart in the source; their conditions may differ.
Tests used:
[1] = antioxidant capacity by the ORAC method (Fluorescein, AAPH); format: biochemical
Protocol: The 3,5-dihydroxy-4-methoxybenzyl alcohol can be separated and purified by the following operation. First, Trolox (Wako) or a test sample of 0.05 mL dissolved in a mixed solution of 0.075 mol/L phosphoric acid buffer solution 2.3 of 5 mL, 6.3×10^−7 mol/L Fluorescein (fluorescent probe) of 0.3 mL, and 7% (w/v) methylated β-cyclodextrin (Wako) was warmed for 10 minutes at 37° C.
1.28×10^−1 mol/L2,2′-azobis(2-amidinopropane)dihydrochloride (AAPH, Wako), which has been preliminarily warmed at 37° C., was added by 0.3 mL. For example, while stirring with a stirrer, a fluorescence intensity (excitation wavelength: 493 nm, fluorescence wavelength: 515 nm) was measured for every 10 seconds and up to 5,000 seconds by a spectrofluorophotometer (FP-6500 , JASCO, Tokyo).
An antioxidant activity is indicated by length of period (for example, the horizontal axis in FIG. 5) during which a measured fluorescence value (the vertical axis in the same drawing) at the start of measurement is maintained. The longer the period, the stronger the antioxidant activity is.
Methods for measuring an antioxidant substance in a food product have been variously reported. However, all the methods have a drawback and an advantage, and therefore the method has not been standardized or determined as an official method (confirmation of validity of an analysis value). However, in the United States of America, a supplement and a beverage with an ORAC value have already been on the market. This trend is becoming a world standard. Accordingly, in this working example, the antioxidative potency is measured by the ORAC method.
A research conference that studies on employing the ORAC method as an official method (Antioxidant-Unit Research Association) has already been founded in Japan. The ORAC method has advantages in that both a soluble sample and a liposoluble sample can be measured and the above-described any organic solvent fractions can be measured. […]

[2] = properties of the separated and purified substance (solubility); format: physicochemical
Source text: Here, the properties of 3,5-dihydroxy-4-methoxybenzyl alcohol, which was separated and purified, will be described. […] It was confirmed that the 3,5-dihydroxy-4-methoxybenzyl alcohol was a phenolic compound as illustrated in FIG. 8.

[3] = test system: cell line (C3A) in a liver; experiment: oxidation of DPPP-labeled hepatocyte culture (C3A) by AAPH; format: cell-based; conditions: cultured for 5 days with the substance, compared with cell without the substance
Protocol: FIG. 12 illustrates the principle of the fluorescence of the diphenyl-1-pyrenlphosphine (DPPP). Using the fluorescent dye, the degree of oxidation of a cell line (C3A) in a liver was observed.
A cell where the 3,5-dihydroxy-4-methoxybenzyl alcohol according to the present invention had been added was cultured for 5 days. The cell labeled by DPPP was oxidized by 2,2′-azobis (2-methylpropionamidine)dihydrochloide, and then the fluorescence intensity of the DPPP in each cell was measured. […] It was confirmed that the antioxidant substance, 3,5-dihydroxy-4-methoxybenzyl alcohol, reduced the oxidation (see FIG. 13).

normal human LDL = experiment: metal oxidation of normal human LDL by copper sulfate, quantitated by TBARS method; format: biochemical
Protocol: When normal human LDL is oxidized by copper sulfate, 3,5-dihydroxy-4-methoxybenzyl alcohol was added, and the degree of oxidation of the LDL was quantitated by a TBARS method (see FIG. 11). […] The Lag-time refers to a period where a rise of a curve is not observed. It is determined that, as the time increases, antioxidant activity occurs. However, the lag-time was extended by dose dependency. The lag-time was 2 hours for addition of 270 μM, 4 hours for addition of 360 μM, and 5 hours for addition of 450 μM and 540 μM.

SMILES: COc1c(O)cc(CO)cc1O [3,5-dihydroxy-4-methoxybenzyl alcohol]
- ORAC value relative to that of L(+)-ascorbic acid [1]: three times
- antioxidant capacity / antioxidant activity observed by the ORAC method ([1]; length of period during which the fluorescence value is maintained): high antioxidant activity was observed; also recorded: high antioxidant capacity between those of a chlorogenic acid and L(+)- the ascorbic acid
- ORAC value ([1]; synthesized product): 1.47±0.40 μmoITE/μmol
- solubility [2]: show lipid solubility and water solubility
- fluorescence intensity of DPPP / oxidation of C3A cell [3]: concentration dependence and low fluorescence intensity; also recorded: significantly reduced oxidation of a C3A cell; also recorded: showed an antioxidant capacity in a dose-dependent manner
- lag-time of LDL oxidation (normal human LDL; addition of 270 μM): 2 h
- lag-time of LDL oxidation (normal human LDL; addition of 360 μM): 4 h
- lag-time of LDL oxidation (normal human LDL; addition of 450 μM): 5 h
- lag-time of LDL oxidation (normal human LDL; addition of 540 μM): 5 h
- effect on metal oxidation of the LDL (normal human LDL; copper sulfate, TBARS): reduced the metal oxidation of the LDL; also recorded: showed an antioxidant capacity in a dose-dependent manner
- lag-time of LDL oxidation (normal human LDL; substance added at 180 μM): lag-time was not observed

From patent publication US9012513B2, “Antioxidant, antioxidant composition and production method therefor” (Watanabe Oyster Laboratory Co., Ltd., priority 2011, dated 2015)
